Assay results published in US12077503B2, “Substituted cyclic amides and their use as herbicides” (FMC CORPORATION, priority 2015, dated 2024).

Tests used:
Type in all cases: in vivo
corn (Zea mays) [1] = assay: Test G Post-Emergence Protocol
Description: (§1) Seeds of corn (Zea mays), giant foxtail (Setaria faberi), barnyardgrass (Echinochloa crus-galli), ivy-leaved morning glory (Ipomoea hederacea), redroot pigweed (Amaranthus retroflexus) and velvetleaf (Abutilon theophrasti) were sown in standard soil in pots. After cultivation for 8 days under controlled conditions in a glasshouse (at 24/16° C., day/night; 14 hours light; 65% humidity), the plants were sprayed with an aqueous spray solution derived from the formulation of the technical active ingredient in acetone/water (50:50) solution containing 0.5% Tween 20 (polyoxyethylene sorbitan monolaurate, CAS RN 9005-64-5) to give a final dose of 15.625, 62.5 or 250 g/ha of test compound.
(§2) The test plants were then grown on under controlled conditions in a glasshouse (at 24/16° C., day/night; 14 hours light; 65% humidity) and watered twice daily. After 13 days the test was evaluated (100=total damage to plant; 0=no damage to plant). A dash (-) means no test result.

[2] = tested on: redroot pigweed (Amaranthus retroflexus); assay: Test G Post-Emergence Protocol
Description: as §1, §2

[3] = tested on: velvetleaf (Abutilon theophrasti); assay: Test G Post-Emergence Protocol
Description: as §1, §2

[4] = tested on: barnyardgrass (Echinochloa crus-galli); assay: Test G Post-Emergence Protocol
Description: as §1, §2

[5] = tested on: ivy-leaved morning glory (Ipomoea hederacea); assay: Test G Post-Emergence Protocol
Description: as §1, §2

[6] = tested on: giant foxtail (Setaria faberi); assay: Test G Post-Emergence Protocol
Description: as §1, §2

corn (Zea mays) [7] = assay: Test G Pre-Emergence Protocol; settings: evaluated after 13 days
Description: as §1, with “one day” for “8 days”
as §2

[8] = tested on: redroot pigweed (Amaranthus retroflexus); assay: Test G Pre-Emergence Protocol; settings: evaluated after 13 days
Description: as §1, with “one day” for “8 days”
as §2

[9] = tested on: velvetleaf (Abutilon theophrasti); assay: Test G Pre-Emergence Protocol; settings: evaluated after 13 days
Description: as §1, with “one day” for “8 days”
as §2

[10] = tested on: barnyardgrass (Echinochloa crus-galli); assay: Test G Pre-Emergence Protocol; settings: evaluated after 13 days
Description: as §1, with “one day” for “8 days”
as §2

[11] = tested on: ivy-leaved morning glory (Ipomoea hederacea); assay: Test G Pre-Emergence Protocol; settings: evaluated after 13 days
Description: as §1, with “one day” for “8 days”
as §2

[12] = tested on: giant foxtail (Setaria faberi); assay: Test G Pre-Emergence Protocol; settings: evaluated after 13 days
Description: as §1, with “one day” for “8 days”
as §2

[13] = 15.625 g ai/ha, evaluated after 13 days (100=total damage to plant; 0=no damage to plant)
[14] = 62.5 g ai/ha, evaluated after 13 days, 100=total damage to plant, 0=no damage to plant
[15] = 250 g ai/ha, evaluated after 13 days, 100=total damage to plant, 0=no damage to plant
[16] = 62.5 g ai/ha, 100=total damage to plant, 0=no damage to plant

## COc1c(Cl)ccc([C@H]2CN(C)C(=O)[C@@H]2C(=O)Nc2cccc(F)c2F)c1F (racemic) [Compound 1476]
Corn (Zea mays) [1]; Zea mays, post-emergence, 312 h, 15.625 g ai/ha, evaluated after 13 days (100=total damage to plant; 0=no damage to plant), read-out: Corn damage rating
  plant injury at 15.625 g/ha: 10%
Corn (Zea mays) [1]; Zea mays, post-emergence, 312 h, 62.5 g ai/ha, evaluated after 13 days, read-out: Corn damage rating (100=total damage to plant; 0=no damage to plant)
  plant injury at 62.5 g/ha: 20%
Corn (Zea mays) [1]; Zea mays, post-emergence, 312 h, 250 g ai/ha, evaluated after 13 days, read-out: damage to plant, Corn (100=total damage to plant; 0=no damage to plant)
  plant injury at 250 g/ha: 70%
[2]; Amaranthus retroflexus, post-emergence, 312 h, 15.625 g ai/ha, evaluated after 13 days (100=total damage to plant; 0=no damage to plant), read-out: Pigweed, Redroot damage rating
  pest or weed control at 15.625 g/ha: 10%
[2]; Amaranthus retroflexus, post-emergence, 312 h, 62.5 g ai/ha, evaluated after 13 days, read-out: Pigweed, Redroot damage rating (100=total damage to plant; 0=no damage to plant)
  pest or weed control at 62.5 g/ha: 0%
[2]; Amaranthus retroflexus, post-emergence, 312 h, 250 g ai/ha, evaluated after 13 days, read-out: damage to plant, Pigweed, Redroot (100=total damage to plant; 0=no damage to plant)
  pest or weed control at 250 g/ha: 10%
[3]; Abutilon theophrasti, post-emergence, 312 h, 15.625 g ai/ha, evaluated after 13 days (100=total damage to plant; 0=no damage to plant), read-out: Velvetleaf damage rating
  pest or weed control at 15.625 g/ha: 10%
[3]; Abutilon theophrasti, post-emergence, 312 h, 62.5 g ai/ha, evaluated after 13 days, read-out: Velvetleaf damage rating (100=total damage to plant; 0=no damage to plant)
  pest or weed control at 62.5 g/ha: 0%
[3]; Abutilon theophrasti, post-emergence, 312 h, 250 g ai/ha, evaluated after 13 days, read-out: damage to plant, Velvetleaf (100=total damage to plant; 0=no damage to plant)
  pest or weed control at 250 g/ha: 10%
[4]; Echinochloa crus-galli, post-emergence, 312 h, 15.625 g ai/ha, evaluated after 13 days (100=total damage to plant; 0=no damage to plant), read-out: Barnyardgrass damage rating
  pest or weed control at 15.625 g/ha: 40%
[4]; Echinochloa crus-galli, post-emergence, 312 h, 62.5 g ai/ha, evaluated after 13 days, read-out: Barnyardgrass damage rating (100=total damage to plant; 0=no damage to plant)
  pest or weed control at 62.5 g/ha: 50%
[4]; Echinochloa crus-galli, post-emergence, 312 h, 250 g ai/ha, evaluated after 13 days, read-out: damage to plant, Barnyardgrass (100=total damage to plant; 0=no damage to plant)
  pest or weed control at 250 g/ha: 60%
[5]; Ipomoea, post-emergence, 312 h, 15.625 g ai/ha, evaluated after 13 days (100=total damage to plant; 0=no damage to plant), read-out: Morningglory, Ivy-leaved damage rating
  pest or weed control at 15.625 g/ha: 20%
[5]; Ipomoea, post-emergence, 312 h, 62.5 g ai/ha, evaluated after 13 days, read-out: Morningglory, Ivy-leaved damage rating (100=total damage to plant; 0=no damage to plant)
  pest or weed control at 62.5 g/ha: 20%
[5]; Ipomoea, post-emergence, 312 h, 250 g ai/ha, evaluated after 13 days, read-out: damage to plant, Morningglory, Ivy-leaved (100=total damage to plant; 0=no damage to plant)
  pest or weed control at 250 g/ha: 60%
[6]; Setaria faberi, post-emergence, 312 h, 15.625 g ai/ha, evaluated after 13 days (100=total damage to plant; 0=no damage to plant), read-out: Foxtail, Giant damage rating
  pest or weed control at 15.625 g/ha: 60%
[6]; Setaria faberi, post-emergence, 312 h, 62.5 g ai/ha, evaluated after 13 days, read-out: Foxtail, Giant damage rating (100=total damage to plant; 0=no damage to plant)
  pest or weed control at 62.5 g/ha: 70%
[6]; Setaria faberi, post-emergence, 312 h, 250 g ai/ha, evaluated after 13 days, read-out: damage to plant, Foxtail, Giant (100=total damage to plant; 0=no damage to plant)
  pest or weed control at 250 g/ha: 70%
Corn (Zea mays) [7]; 15.625 g ai/ha
  Corn damage rating (100=total damage to plant; 0=no damage to plant): 0
Corn (Zea mays) [7]; 250 g ai/ha
  Corn damage rating (100=total damage to plant; 0=no damage to plant): 50
Corn (Zea mays) [7]; Zea mays, pre-emergence, 312 h, 62.5 g ai/ha, 100=total damage to plant, 0=no damage to plant, read-out: plant damage rating, Corn
  plant injury at 62.5 g/ha: 0%
[8]; 15.625 g ai/ha
  Pigweed, Redroot damage rating (100=total damage to plant; 0=no damage to plant): 0
[8]; 250 g ai/ha
  Pigweed, Redroot damage rating (100=total damage to plant; 0=no damage to plant): 0
[8]; Amaranthus retroflexus, pre-emergence, 312 h, 62.5 g ai/ha, 100=total damage to plant, 0=no damage to plant, read-out: plant damage rating, Pigweed, Redroot
  pest or weed control at 62.5 g/ha: 0%
[9]; 15.625 g ai/ha
  Velvetleaf damage rating (100=total damage to plant; 0=no damage to plant): 0
[9]; 250 g ai/ha
  Velvetleaf damage rating (100=total damage to plant; 0=no damage to plant): 0
[9]; Abutilon theophrasti, pre-emergence, 312 h, 62.5 g ai/ha, 100=total damage to plant, 0=no damage to plant, read-out: plant damage rating, Velvetleaf
  pest or weed control at 62.5 g/ha: 0%
[10]; 250 g ai/ha
  Barnyardgrass damage rating (100=total damage to plant; 0=no damage to plant): 80
[10]; Echinochloa crus-galli, pre-emergence, 312 h, 15.625 g ai/ha, read-out: Barnyard grass damage rating (100=total damage to plant; 0=no damage to plant)
  pest or weed control at 15.625 g/ha: 60%
[10]; Echinochloa crus-galli, pre-emergence, 312 h, 62.5 g ai/ha, 100=total damage to plant, 0=no damage to plant, read-out: plant damage rating, Barnyardgrass
  pest or weed control at 62.5 g/ha: 70%
[11]; 250 g ai/ha
  Morningglory, Ivy-leaved damage rating (100=total damage to plant; 0=no damage to plant): 0
[11]; Ipomoea, pre-emergence, 312 h, 15.625 g ai/ha, read-out: Morning-glory, Ivy-leaved damage rating (100=total damage to plant; 0=no damage to plant)
  pest or weed control at 15.625 g/ha: 0%
[11]; Ipomoea, pre-emergence, 312 h, 62.5 g ai/ha, 100=total damage to plant, 0=no damage to plant, read-out: plant damage rating, Morningglory, Ivy-leaved
  pest or weed control at 62.5 g/ha: 0%
[12]; 15.625 g ai/ha
  Foxtail, Giant damage rating (100=total damage to plant; 0=no damage to plant): 70
[12]; 250 g ai/ha
  Foxtail, Giant damage rating (100=total damage to plant; 0=no damage to plant): 80
[12]; Setaria faberi, pre-emergence, 312 h, 62.5 g ai/ha, 100=total damage to plant, 0=no damage to plant, read-out: plant damage rating, Foxtail, Giant
  pest or weed control at 62.5 g/ha: 80%

## CN1C[C@H](c2cccc(C(F)(F)F)c2)[C@@H](C(=O)Nc2cccc(F)n2)C1=O [Compound 1816]
Corn (Zea mays) [1]; [13]
  Corn damage rating: 70
Corn (Zea mays) [1]; [14]
  Corn damage rating: 80
Corn (Zea mays) [1]; [15]
  Corn damage rating: 80
[2]; [13]
  Pigweed, Redroot damage rating: 10
[2]; [14]
  Pigweed, Redroot damage rating: 40
[2]; [15]
  Pigweed, Redroot damage rating: 70
[3]; [13]
  Velvetleaf damage rating: 0
[3]; [14]
  Velvetleaf damage rating: 30
[3]; [15]
  Velvetleaf damage rating: 30
[4]; [13]
  Barnyardgrass damage rating: 80
[4]; [14]
  Barnyardgrass damage rating: 80
[4]; [15]
  Barnyardgrass damage rating: 80
[5]; [13]
  Morningglory, Ivy-leaved damage rating: 10
[5]; [14]
  Morningglory, Ivy-leaved damage rating: 60
[5]; [15]
  Morningglory, Ivy-leaved damage rating: 70
[6]; [13]
  Foxtail, Giant damage rating: 80
[6]; [14]
  Foxtail, Giant damage rating: 80
[6]; [15]
  Foxtail, Giant damage rating: 80
Corn (Zea mays) [7]; 15.625 g ai/ha
  Corn damage rating (100=total damage to plant; 0=no damage to plant): 70
Corn (Zea mays) [7]; [16]
  Corn damage rating: 80
Corn (Zea mays) [7]; 250 g ai/ha
  Corn damage rating (100=total damage to plant; 0=no damage to plant): 80
[8]; 15.625 g ai/ha
  Pigweed, Redroot damage rating (100=total damage to plant; 0=no damage to plant): 0
[8]; [16]
  Pigweed, Redroot damage rating: 40
[8]; 250 g ai/ha
  Pigweed, Redroot damage rating (100=total damage to plant; 0=no damage to plant): 80
[9]; 15.625 g ai/ha
  Velvetleaf damage rating (100=total damage to plant; 0=no damage to plant): 0
[9]; [16]
  Velvetleaf damage rating: 20
[9]; 250 g ai/ha
  Velvetleaf damage rating (100=total damage to plant; 0=no damage to plant): 60
[10]; 15.625 g ai/ha
  Barnyardgrass damage rating (100=total damage to plant; 0=no damage to plant): 90
[10]; [16]
  Barnyardgrass damage rating: 90
[10]; 250 g ai/ha
  Barnyardgrass damage rating (100=total damage to plant; 0=no damage to plant): 90
[11]; 15.625 g ai/ha
  Morningglory, Ivy-leaved damage rating (100=total damage to plant; 0=no damage to plant): 20
[11]; [16]
  Morningglory, Ivy-leaved damage rating: 60
[11]; 250 g ai/ha
  Morningglory, Ivy-leaved damage rating (100=total damage to plant; 0=no damage to plant): 80
[12]; 15.625 g ai/ha
  Foxtail, Giant damage rating (100=total damage to plant; 0=no damage to plant): 90
[12]; [16]
  Foxtail, Giant damage rating: 90
[12]; 250 g ai/ha
  Foxtail, Giant damage rating (100=total damage to plant; 0=no damage to plant): 90
